From ChEMBL document CHEMBL1150844, “Isolation and structures of hedaols A, B, and C, new bisnorditerpenes from a Japanese brown alga” (J Nat Prod, 2001)
In brackets after ≈: the same amount, converted by molar mass.

system: P388; assay: Cytotoxicity against mouse P388 cells after 4 days by MTT method; type: functional, cell-based; settings: P388, 96 h

Structure (SMILES)	IC50 [µg/mL]
CC(C)=CC(=O)/C=C(\C)CCC/C(C)=C/CC[C@@H](C)O [HEDAOL C]	50 (≈ 180 µM)
CC(C)=CC(=O)/C=C(/C)CCC/C(C)=C/CC[C@@H](C)O [HEDAOL A]	5.1 (≈ 18.3 µM)
CC(C)=CC(=O)C/C(C)=C/CC/C(C)=C/CC[C@@H](C)O [HEDAOL B]	2.2 (≈ 7.9 µM)
